Results reported in patent US20250292907A1, “SYSTEMS AND METHODS FOR PERFORMING GAIT AND SPEECH ASSESSMENT ASSOCIATED WITH A DISEASE STATE” (Regeneron Pharmaceuticals, Inc., priority 2024, published 2025).

Tests used:
[1] = test system: subjects with Parkinson's Disease (PD); experiment: Levodopa challenge test: MDS-UPDRS Part III motor examination in OFF state vs ON state; assay type: in vivo, human; details: ON minus OFF, mean (SD)
Experimental: To participate in the study, participants were required to meet several inclusion criteria. First, they needed a clinical diagnosis of PD confirmed by a treating movement disorders neurologist. Participants had to be between the ages of 40 and 70. […] Participants had to be willing to undergo a levodopa challenge test, which involves coming to an assessment site for evaluation in the morning after not taking levodopa since the night before (e.g., at least 12 hours). They would then take levodopa at the site, wait for it to take effect (achieving the “ON” state), and repeat the motor evaluation. Additionally, participants needed to be ambulatory in the “OFF” state, meaning they could walk safely without a walking aid on a flat surface at the start of the levodopa challenge test. […]
At step 305, system 100 may receive data from subjects that were assessed in an OFF-state. […]
In some aspects, the site investigator, who is a movement disorders specialist, was tasked with performing the MDS-UPDRS Part III motor examination. […] Specific tasks, including toe tapping and leg agility, were performed using the production device while wearing the wearable insole tests device to enable a quantitative analysis of these movements.
At step 310, system 100 may receive data from the subjects that were assessed in the ON-state. […]

[2] = test system: subjects with Parkinson's Disease (PD); experiment: Speech assessment with digital mobile speech-based platform in OFF vs ON medication state; assay type: in vivo, human; details: before vs after levodopa treatment, FIG. 103
Description: Additionally, subjects were also tasked with performing voice and speech assessments using the digital mobile speech-based platform. These speech and language tasks were designed to evaluate different aspects of verbal ability and cognitive function in participants. In an aspect, these tasks were organized to be conducted in a quiet environment to ensure accurate measurement of speech parameters. In a picture description task, participants are shown a static image depicting an event and asked to describe it in their own words. This task serves as a proxy for spontaneous discourse, providing insights into natural language use. […] In a paragraph reading task, participants were required to read one of three standard paragraphs designed to include all English language phonemes and an equal number of details and information units. This task evaluates reading fluency and pronunciation. […] During this task, gait parameters were measured simultaneously using the wearable insoles test device and the production device. […] This involved repeating the same set of voice-related activities performed in the OFF state, including paragraph reading, picture description, object naming, rapid syllable repetition, and sustained phonation. Conducting these tasks in a quiet environment ensured that the speech parameters were accurately measured without external distractions. […]

SMILES: N[C@@H](Cc1ccc(O)c(O)c1)C(=O)O [levodopa]
- mean difference in the MDS-UPDRS III between the ON and OFF state ([1]; all subjects): -19.1 (SD=10)
- mean difference in the LE subscore between the ON and OFF state ([1]; lower extremity subscore of MDS-UPDRS III): −5.7 (SD=4)
- change in average word duration between medication states [2]: prevalent trend of decreasing word duration
